Experimental data from patent US20190262294A1, “MODIFIER SYSTEM FOR COMPOSITIONS CONTAINING LAYERED DOUBLE HYDROXIDE” (OXFORD PHARMASCIENCE LIMITED, priority 2016, published 2019).

Assay: solvent system method: total amount of ibuprofen released from the LDH
Type: physicochemical
Conditions: 200 mg dose of ibuprofen; 0.05M HCl 50 mL, 15 min
Protocol: This method determines the total amount of ibuprofen that is released from the LDH matrix.
A sample is then removed for analysis to determine the total amount of ibuprofen (dissolved and undissolved) which is released into the HCl solution. Further dilution is conducted as required.
Samples of the of the reaction solution were removed and used to determine the amount of ibuprofen released by each of the modifier systems using both the solvent system method and the solubility method described above.

CC(C)Cc1ccc(C(C)C(=O)O)cc1 (stereo not shown) [Ibuprofen free acid]
TOTAL AMOUNT OF IBUPROFEN RELEASED FROM THE LDH AS DETERMINED USING THE SOLVENT METHOD: 95%
